Converted amounts (≈) assume the structure as drawn.
Experiments:
Assay type in all cases: cell-based
[1] = tested on: E. coli WT-3 [gyrA(S83L,D87G)]; assay: microbe, parasite or virus in culture; conditions: for MIC: Escherichia coli, read-out: MIC E. coli WT-3 [gyrA(S83L,D87G)]
How it was run: (§1)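 First, overnight cultures were diluted into cation-adjusted Müller-Hinton broth at 10^4-10^6 cfu/mL. Next, they were exposed to serial compound dilutions for approx. 16 h at 30-37° C. Finally, wells were inspected visually and the MIC assigned where growth was absent.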

[2] = tested on: E. coli ΔtolC; assay: microbe, parasite or virus in culture; conditions: Escherichia coli, 16 h, read-out: MIC E. coli ΔtolC, small panel, Tables 1a/1b; no visual growth after approx. 16 h
How it was run: as §1

[3] = tested on: P. aeruginosa ΔmexAB; assay: microbe, parasite or virus in culture; conditions: Pseudomonas aeruginosa, 16 h, read-out: MIC P. aeruginosa ΔmexAB, efflux-deficient strain; small panel, Tables 1a/1b
How it was run: as §1

[4] = tested on: A. baumannii DSM-30008; assay: MIC, microbroth dilution susceptibility assay; conditions: Acinetobacter baumannii, DSM30008; large panel, Table 2a
How it was run: as §1

[5] = tested on: C. freundii DSM-30039; assay: MIC, microbroth dilution susceptibility assay; conditions: Citrobacter freundii, DSM30039; large panel, Table 2a
How it was run: as §1

[6] = tested on: E. aerogenes DSM-30053; assay: MIC, microbroth dilution susceptibility assay; conditions: Klebsiella aerogenes, DSM30053; large panel, Table 2a
How it was run: as §1

[7] = tested on: E. cloacae DSM-30054; assay: MIC, microbroth dilution susceptibility assay; conditions: Enterobacter cloacae, DSM30054; large panel, Table 2a
How it was run: as §1

[8] = tested on: E. coli WT DSM-1116; assay: MIC, microbroth dilution susceptibility assay; conditions: Escherichia coli, DSM1116; small panel, Tables 1a/1b; no visual growth after approx. 16 h; read-out: MIC E. coli WT DSM-1116
How it was run: as §1

[9] = tested on: E. coli WT; assay: MIC, microbroth dilution susceptibility assay; conditions: for MIC: Escherichia coli
How it was run: as §1

[10] = tested on: E. faecalis ATCC-29212; assay: MIC, microbroth dilution susceptibility assay; conditions: Enterococcus faecalis, ATCC29212; large panel, Table 2a; TSB
How it was run: as §1

[11] = tested on: K. pneumoniae DSM-30104; assay: MIC, microbroth dilution susceptibility assay; conditions: Klebsiella pneumoniae, DSM30104; large panel, Table 2a
How it was run: as §1

[12] = tested on: P. aeruginosa DSM-24600; assay: MIC, microbroth dilution susceptibility assay; conditions: Pseudomonas aeruginosa, DSM24600; large panel, Table 2a
How it was run: as §1

[13] = tested on: P. aeruginosa DSM-46316; assay: MIC, microbroth dilution susceptibility assay; conditions: Pseudomonas aeruginosa, DSM46316; large panel, Table 2a
How it was run: as §1

[14] = tested on: P. aeruginosa WT PA14; assay: MIC, microbroth dilution susceptibility assay; conditions: Pseudomonas aeruginosa, PA14, small panel, Tables 1a/1b; read-out: MIC P. aeruginosa WT PA14
How it was run: as §1

[15] = tested on: P. mirabilis DSM-2140; assay: MIC, microbroth dilution susceptibility assay; conditions: Proteus mirabilis, DSM2140; large panel, Table 2a
How it was run: as §1

[16] = tested on: P. vulgaris DSM-2140; assay: MIC, microbroth dilution susceptibility assay; conditions: Proteus vulgaris, DSM2140; large panel, Table 2a
How it was run: as §1

[17] = tested on: S. aureus ATCC-29213; assay: MIC, microbroth dilution susceptibility assay; conditions: Staphylococcus aureus, ATCC29213; large panel, Table 2a
How it was run: as §1

[18] = tested on: S. aureus Newman; assay: MIC, microbroth dilution susceptibility assay; conditions: Staphylococcus aureus, NEWMAN; small panel, Tables 1a/1b; read-out: MIC S. aureus Newman
How it was run: as §1

[19] = tested on: S. epidermidis DSM-28765; assay: MIC, microbroth dilution susceptibility assay; conditions: Staphylococcus epidermidis, DSM28765; large panel, Table 2a
How it was run: as §1

[20] = tested on: S. marcescens DSM-30121; assay: MIC, microbroth dilution susceptibility assay; conditions: Serratia marcescens, DSM30121; large panel, Table 2a
How it was run: as §1

[21] = tested on: S. pneumoniae DSM-20566; assay: MIC, microbroth dilution susceptibility assay; conditions: Streptococcus pneumoniae, DSM20566; large panel, Table 2a; TSB
How it was run: as §1

[22] = tested on: E. coli WT-III [marRΔ74bp]; conditions: fluoroquinolone-resistant mutant; Table 2a
Method: (§2) Cystobactamid derivatives synthesized were tested against relevant Gram negative and positive bacteria of clinical interest. Experimental procedures used for the biological characterization of the compounds are the same as previously described in WO 2016/082934.
(§3) Bacterial strains used in susceptibility assays (minimum inhibitory concentration, MIC) were either part of our internal strain collection or purchased from the German Collection of Microorganisms and Cell Cultures (Deutsche Sammlung von Mikroorganismen und Zellkulturen, DSMZ) and the American Type Culture Collection (ATCC). The susceptible E. coli strain (WT) and fluoroquinolone-resistant mutants E. coli WT-3 and WT-III were kindly provided by Prof Dr. P. Heisig, Pharmaceutical Biology and Microbiology, University of Hamburg, Germany. The efflux-deficient strain P. aeruginosa ΔmexAB was kindly provided by Prof Dr. S. Häußler, Institute for Molecular Bacteriology, TWINCORE, Hannover, Germany. All compounds were prepared as DMSO stocks and MIC values were determined in standard microbroth dilution assays in 96-well MTPs as described in Baumann et al., Angew Chem Int Ed Engl. 2014; 53(52):14605-9. In brief, overnight cultures of bacteria were diluted in either tryptic soy broth (TSB: 1.7% peptone casein, 0.3% peptone soymeal, 0.25% glucose, 0.5% NaCl, 0.25% K2HPO4; pH 7.3; S. pneumoniae and E. faecalis) or cation-adjusted Müller-Hinton Broth (BBL™, BD; all other bacteria) and adjusted to 10^4-10^6 cfu/mL. Bacteria were grown in the presence of the derivatives in serial dilution for approx. 16 h at 30-37° C. MIC values were determined and were defined as the antibiotic concentration at which no visual growth of bacteria was observed.

[23] = tested on: A. baumannii; assay: MIC, microbroth dilution susceptibility assay (Table 2b); conditions: larger panel
Method: as §2, §3

[24] = tested on: C. freundii; assay: as above; conditions: larger panel
Method: as §2, §3

[25] = tested on: E. aerogenes; assay: as above; conditions: larger panel
Method: as §2, §3

[26] = tested on: E. cloacae; assay: as above; conditions: larger panel
Method: as §2, §3

[27] = tested on: E. faecalis; assay: as above; conditions: larger panel
Method: as §2, §3

[28] = tested on: K. pneumoniae; assay: as above; conditions: larger panel
Method: as §2, §3

[29] = tested on: P. aeruginosa ESBL 1; assay: as above
Method: as §2, §3

[30] = tested on: P. aeruginosa ESBL 2; assay: as above
Method: as §2, §3

[31] = tested on: P. mirabilis; assay: as above; conditions: larger panel
Method: as §2, §3

[32] = tested on: P. vulgaris; assay: as above; conditions: larger panel
Method: as §2, §3

[33] = tested on: S. epidermidis; assay: as above; conditions: larger panel
Method: as §2, §3

[34] = tested on: S. marcescens; assay: as above; conditions: larger panel
Method: as §2, §3

SMILES	MIC [1] [µg/mL]	MIC [2] [µg/mL]	MIC [3] [µg/mL]	MIC [4] [µg/mL]	MIC [5] [µg/mL]	MIC [6] [µg/mL]	MIC [7] [µg/mL]	MIC [8] [µg/mL]	MIC ([9]; large panel, Table 2a) [µg/mL]	MIC [10] [µg/mL]	MIC [11] [µg/mL]	MIC [12] [µg/mL]	MIC [13] [µg/mL]	MIC [14] [µg/mL]	MIC [15] [µg/mL]	MIC [16] [µg/mL]	MIC [17] [µg/mL]	MIC [18] [µg/mL]	MIC [19] [µg/mL]	MIC [20] [µg/mL]	also measured
CC(C)Oc1c(NC(=O)c2ccc(NC(=O)[C@H](CC(N)=O)NC(=O)c3ccc(NC(=O)c4ccc(C#N)cc4)cc3)cc2)ccc(C(=O)Nc2ccc(C(=O)O)cc2)c1O [Compound 44, (S)-4-(4-(4-(4-amino-2-(4-(4-cyanobenzamido)benzamido)-4-oxobutanamido)benzamido)-2-hydroxy-3-isopropoxybenzamido)benzoic acid]	0.13 (≈ 0.16 µM)	0.06 (≈ 0.0739 µM)	0.25 (≈ 0.308 µM)	1 (≈ 1.23 µM)	< 0.03	1 (≈ 1.23 µM)	0.25 (≈ 0.308 µM)	0.5 (≈ 0.616 µM)	0.25 (≈ 0.308 µM)	0.5 (≈ 0.616 µM)	0.5 (≈ 0.616 µM)	> 64	2 (≈ 2.46 µM)	2 (≈ 2.46 µM)	64 (≈ 78.8 µM)	0.25 (≈ 0.308 µM)	0.5 (≈ 0.616 µM)	0.25 (≈ 0.308 µM)	0.06 (≈ 0.0739 µM)	> 64	MIC ([9]; larger panel, Table 2b): 0.25 µg/mL (≈ 0.308 µM); MIC [21]: 0.13 µg/mL (≈ 0.16 µM); MIC E. coli WT-III [marRΔ74bp] [22]: 0.25 µg/mL (≈ 0.308 µM); MIC ([23]; Acinetobacter baumannii): 1 µg/mL (≈ 1.23 µM); MIC ([24]; Citrobacter freundii): < 0.03 µg/mL; MIC ([25]; Klebsiella aerogenes): 0.06 µg/mL (≈ 0.0739 µM); MIC ([26]; Enterobacter cloacae): 0.25 µg/mL (≈ 0.308 µM); MIC ([27]; Enterococcus faecalis): 0.5 µg/mL (≈ 0.616 µM); MIC ([28]; Klebsiella pneumoniae): 0.5 µg/mL (≈ 0.616 µM); MIC ([29]; Pseudomonas aeruginosa, ESBL1, larger panel): 4 µg/mL (≈ 4.93 µM); MIC ([30]; Pseudomonas aeruginosa, ESBL2, larger panel): 4 µg/mL (≈ 4.93 µM); MIC ([31]; Proteus mirabilis): > 64 µg/mL; MIC ([32]; Proteus vulgaris): 0.25 µg/mL (≈ 0.308 µM); MIC ([33]; Staphylococcus epidermidis): < 0.03 µg/mL; MIC ([34]; Serratia marcescens): > 64 µg/mL
C/C(=C\c1ccc(O)cc1)C(=O)Nc1ccc(C(=O)N[C@@H](CC(N)=O)C(=O)Nc2ccc(C(=O)Nc3ccc(C(=O)Nc4ccc(C(=O)O)cc4)c(O)c3OC(C)C)cc2)cc1 [Compound 53, (S,E)-4-(4-(4-(4-amino-2-(4-(3-(4-hydroxyphenyl)-2-methylacrylamido)benzamido)-4-oxobutanamido)benzamido)-2-hydroxy-3-isopropoxybenzamido)benzoic acid]	0.06 (≈ 0.0712 µM)	0.06 (≈ 0.0712 µM)	0.25 (≈ 0.297 µM)	0.25 (≈ 0.297 µM)	0.13 (≈ 0.154 µM)	1 (≈ 1.19 µM)	> 64	0.25 (≈ 0.297 µM)	0.13 (≈ 0.154 µM)	0.5 (≈ 0.593 µM)	> 64	> 64	2 (≈ 2.37 µM)	1 (≈ 1.19 µM)	2 (≈ 2.37 µM)	0.13 (≈ 0.154 µM)	0.5 (≈ 0.593 µM)	0.25 (≈ 0.297 µM)	0.25 (≈ 0.297 µM)	64 (≈ 75.9 µM)	MIC [21]: 2 µg/mL (≈ 2.37 µM); MIC E. coli WT-III [marRΔ74bp] [22]: 0.06 µg/mL (≈ 0.0712 µM)
COc1c(NC(=O)c2ccc(NC(=O)c3ccc(NC(=O)[C@H](CC#N)NC(=O)c4ccc(NC(=O)/C(C)=C/c5ccc(O)cc5)cc4)cc3)c(OC)c2O)ccc(C(=O)O)c1O [Alb, Albicidin, reference compound]																					MIC E. coli WT-3 [gyrA(S83L, D87G)] ([1]; larger panel, Table 2b): 0.06 µg/mL (≈ 0.0712 µM); MIC E. coli WT ([9]; larger panel, Table 2b): 0.06 µg/mL (≈ 0.0712 µM); MIC A. baumannii [23]: >64 µg/mL; MIC C. freundii [24]: <0.03 µg/mL; MIC E. aerogenes [25]: >64 µg/mL; MIC E. cloacae [26]: >64 µg/mL; MIC E. faecalis [27]: 4 µg/mL (≈ 4.75 µM); MIC K. pneumoniae [28]: >64 µg/mL; MIC P. aeruginosa ESBL 1 ([29]; larger panel): 16 µg/mL (≈ 19 µM); MIC P. aeruginosa ESBL 2 ([30]; larger panel): 16 µg/mL (≈ 19 µM); MIC P. mirabilis [31]: >64 µg/mL; MIC P. vulgaris [32]: <0.03 µg/mL; MIC S. epidermidis [33]: 0.5 µg/mL (≈ 0.593 µM); MIC S. marcescens [34]: >64 µg/mL
